Measurements reported in paper PMC5218480 (PLoS ONE, 2017).

Test system: MV-4-11 cells
Experiment: Gene expression microarray analysis (Affymetrix PrimeView) and GSEA
Assay type: cell-based, human
Parameters: RFU PODN (11730768_x_at) / Fold change /veh PODN (11730768_x_at) / RFU LINC00158 (11744669_a_at) / Fold change /veh LINC00158 (11744669_a_at) / RFU DUSP10 (11751237_a_at) / Fold change /veh DUSP10 (11751237_a_at) / RFU ID3 (11757404_x_at) / Fold change /veh ID3 (11757404_x_at) / RFU PLEKHG5 (11737974_s_at) / Fold change /veh PLEKHG5 (11737974_s_at) / RFU LRRC4B (11730491_at) / Fold change /veh LRRC4B (11730491_at) / RFU GIMAP4 (11747438_a_at) / Fold change /veh GIMAP4 (11747438_a_at) / RFU KRT8 (11758183_x_at) / Fold change /veh KRT8 (11758183_x_at) / RFU CNN1 (11734310_a_at) / Fold change /veh CNN1 (11734310_a_at) / RFU VPS37D (11726825_at) / Fold change /veh VPS37D (11726825_at) / RFU C10orf10 (11716522_x_at) / Fold change /veh C10orf10 (11716522_x_at) / RFU KIR2DL2 /// KIR2DL4 /// KIR2DL5A /// KIR2DL5B /// KIR2DS1 /// KIR2DS2 /// KIR2DS3 /// KIR2DS4 /// KIR3DL3 /// KIR3DL3 /// KIR3DS1 (11738374_at) / Fold change /veh KIR2DL2 /// KIR2DL4 /// KIR2DL5A /// KIR2DL5B /// KIR2DS1 /// KIR2DS2 /// KIR2DS3 /// KIR2DS4 /// KIR3DL3 /// KIR3DL3 /// KIR3DS1 (11738374_at) / RFU C1QL1 (11718748_at) / Fold change /veh C1QL1 (11718748_at) / RFU TMPRSS4 (11747572_a_at) / Fold change /veh TMPRSS4 (11747572_a_at) / RFU HAMP (11756126_x_at) / Fold change /veh HAMP (11756126_x_at) / RFU RNFT2 (11725882_a_at) / Fold change /veh RNFT2 (11725882_a_at) / RFU NR4A2 (11747474_a_at) / Fold change /veh NR4A2 (11747474_a_at) / RFU ABCC12 (11746883_a_at) / Fold change /veh ABCC12 (11746883_a_at) / RFU TMEM136 (11760407_x_at) / Fold change /veh TMEM136 (11760407_x_at) / RFU CLDN22 /// WWC2 (11732394_at) / Fold change /veh CLDN22 /// WWC2 (11732394_at) / RFU HLA-DPB1 (11760878_x_at) / Fold change /veh HLA-DPB1 (11760878_x_at) / RFU SPINT1 (11716480_a_at) / Fold change /veh SPINT1 (11716480_a_at) / RFU GAP43 (11754022_s_at) / Fold change /veh GAP43 (11754022_s_at) / RFU A4GNT (11735810_at) / Fold change /veh A4GNT (11735810_at) / RFU PRB3 (11715151_x_at) / Fold change /veh PRB3 (11715151_x_at) / RFU TUBB4B (11761932_at) / Fold change /veh TUBB4B (11761932_at) / RFU CAPN14 (11732068_a_at) / Fold change /veh CAPN14 (11732068_a_at) / RFU TMCC2 (11721928_a_at) / Fold change /veh TMCC2 (11721928_a_at) / RFU IRGQ (11745062_a_at) / Fold change /veh IRGQ (11745062_a_at) / RFU FAM174B (11720279_a_at) / Fold change /veh FAM174B (11720279_a_at) / RFU TMPRSS4 (11748680_a_at) / Fold change /veh TMPRSS4 (11748680_a_at) / RFU FAM212B (11763350_a_at) / Fold change /veh FAM212B (11763350_a_at) / RFU PLEKHG5 (11743358_a_at) / Fold change /veh PLEKHG5 (11743358_a_at) / RFU ZSCAN30 (11745921_a_at) / Fold change /veh ZSCAN30 (11745921_a_at) / RFU CMKLR1 (11741424_a_at) / Fold change /veh CMKLR1 (11741424_a_at) / RFU LOC101060620 /// MAPK8IP1 (11723275_at) / Fold change /veh LOC101060620 /// MAPK8IP1 (11723275_at) / RFU SPTSSB (11747773_x_at) / Fold change /veh SPTSSB (11747773_x_at) / RFU PRSS12 (11739890_at) / Fold change /veh PRSS12 (11739890_at) / RFU BIN1 (11741810_x_at) / Fold change /veh BIN1 (11741810_x_at) / RFU WNT11 (11732464_a_at) / Fold change /veh WNT11 (11732464_a_at) / RFU C10orf10 (11716521_a_at) / Fold change /veh C10orf10 (11716521_a_at) / RFU C5orf56 (11738089_at) / Fold change /veh C5orf56 (11738089_at) / RFU CYB561 (11721691_x_at) / Fold change /veh CYB561 (11721691_x_at) / RFU ANKRD19P (11752326_a_at) / Fold change /veh ANKRD19P (11752326_a_at) / RFU OR2T12 /// OR2T33 /// OR2T8 (11738714_s_at) / Fold change /veh OR2T12 /// OR2T33 /// OR2T8 (11738714_s_at) / RFU VCAN (11748164_a_at) / Fold change /veh VCAN (11748164_a_at) / RFU JSRP1 (11732532_at) / Fold change /veh JSRP1 (11732532_at) / RFU KRTAP10-11 (11738290_x_at) / Fold change /veh KRTAP10-11 (11738290_x_at) / RFU MYO3A (11730013_a_at) / Fold change /veh MYO3A (11730013_a_at) / RFU EBF3 (11725865_a_at) / Fold change /veh EBF3 (11725865_a_at) / RFU CAMK2N1 (11719241_x_at) / Fold change /veh CAMK2N1 (11719241_x_at) / RFU C5orf56 (11738088_a_at) / Fold change /veh C5orf56 (11738088_a_at) / RFU OLFML3 (11715873_a_at) / Fold change /veh OLFML3 (11715873_a_at) / RFU LOC100653217 /// NTM (11731650_a_at) / Fold change /veh LOC100653217 /// NTM (11731650_a_at) / RFU MAPK11 (11762145_a_at) / Fold change /veh MAPK11 (11762145_a_at) / RFU FIZ1 (11724087_x_at) / Fold change /veh FIZ1 (11724087_x_at) / RFU OASL (11726364_x_at) / Fold change /veh OASL (11726364_x_at) / RFU SOX15 (11748057_x_at) / Fold change /veh SOX15 (11748057_x_at) / RFU CD79A (11719716_a_at) / Fold change /veh CD79A (11719716_a_at) / RFU HIST1H1D (11736915_at) / Fold change /veh HIST1H1D (11736915_at) / RFU CASKIN2 (11723855_a_at) / Fold change /veh CASKIN2 (11723855_a_at) / RFU LOC730098 (11760151_x_at) / Fold change /veh LOC730098 (11760151_x_at) / RFU OR4N2 (11742367_at) / Fold change /veh OR4N2 (11742367_at) / RFU PRRT2 (11749266_a_at) / Fold change /veh PRRT2 (11749266_a_at) / RFU SNX32 (11753110_a_at) / Fold change /veh SNX32 (11753110_a_at) / RFU CDHR5 (11726645_a_at) / Fold change /veh CDHR5 (11726645_a_at) / RFU RCAN1 (11760418_a_at) / Fold change /veh RCAN1 (11760418_a_at) / RFU FAM167A (11723789_a_at) / Fold change /veh FAM167A (11723789_a_at) / RFU FAM26E (11764081_at) / Fold change /veh FAM26E (11764081_at) / RFU ISYNA1 (11749810_s_at) / Fold change /veh ISYNA1 (11749810_s_at) / RFU ACY1 (11761880_at) / Fold change /veh ACY1 (11761880_at) / RFU 11764098_at / Fold change /veh 11764098_at / RFU SAMD14 (11745864_x_at) / Fold change /veh SAMD14 (11745864_x_at) / RFU NPB (11741838_a_at) / Fold change /veh NPB (11741838_a_at) / RFU TMPRSS6 (11731388_a_at) / Fold change /veh TMPRSS6 (11731388_a_at) / RFU KRTAP10-2 (11738614_at) / Fold change /veh KRTAP10-2 (11738614_at) / RFU ARHGAP8 /// PRR5-ARHGAP8 (11727945_x_at) / Fold change /veh ARHGAP8 /// PRR5-ARHGAP8 (11727945_x_at) / RFU KRTAP5-7 /// NADSYN1 (11734609_at) / Fold change /veh KRTAP5-7 /// NADSYN1 (11734609_at) / RFU RASL12 (11751679_a_at) / Fold change /veh RASL12 (11751679_a_at) / RFU CDKN2B (11736163_a_at) / Fold change /veh CDKN2B (11736163_a_at) / RFU PRF1 (11729649_at) / Fold change /veh PRF1 (11729649_at) / RFU, ZNF638 /// ZNF638-IT1 / Fold change vs veh, ZNF638 /// ZNF638-IT1 / RFU, PANK3 / Fold change vs veh, PANK3 / RFU, SH3YL1 / Fold change vs veh, SH3YL1 / RFU, ZEB2 / Fold change vs veh, ZEB2 / RFU, NRIP1 / Fold change vs veh, NRIP1 / RFU, PTTG1IP / Fold change vs veh, PTTG1IP / RFU, CAPN2 / Fold change vs veh, CAPN2 / RFU, MED14 / Fold change vs veh, MED14 / RFU, SNORA58 / Fold change vs veh, SNORA58 / RFU, C1orf63 / Fold change vs veh, C1orf63 / RFU, LRRFIP1 / Fold change vs veh, LRRFIP1 / RFU, NDUFAF7 / Fold change vs veh, NDUFAF7 / RFU, SLC12A2 / Fold change vs veh, SLC12A2 / RFU, IBTK / Fold change vs veh, IBTK / RFU, ESF1 / Fold change vs veh, ESF1 / Fold change vs veh, TMEM50B / RFU, TAOK1 / Fold change vs veh, TAOK1 / RFU, ACBD3 / Fold change vs veh, ACBD3 / RFU, TMA16 / Fold change vs veh, TMA16 / RFU, RWDD3 / Fold change vs veh, RWDD3 / RFU, BCAT1 / Fold change vs veh, BCAT1 / RFU, EDEM3 / Fold change vs veh, EDEM3 / RFU, TMEM33 / Fold change vs veh, TMEM33 / RFU, WDR75 / Fold change vs veh, WDR75 / RFU, AHCTF1 / Fold change vs veh, AHCTF1 / RFU, TFRC / Fold change vs veh, TFRC / RFU, ZDHHC17 / Fold change vs veh, ZDHHC17 / RFU, NOM1 / Fold change vs veh, NOM1 / RFU, ARL8B / Fold change vs veh, ARL8B / RFU, ZBTB11 / Fold change vs veh, ZBTB11 / RFU, TAMM41 / Fold change vs veh, TAMM41 / RFU, KIAA1704 /// LOC100996395 / Fold change vs veh, KIAA1704 /// LOC100996395 / RFU, ING1 / Fold change vs veh, ING1 / RFU, TRMT61B / Fold change vs veh, TRMT61B / RFU, FUBP3 / Fold change vs veh, FUBP3 / RFU, TP53 / Fold change vs veh, TP53 / RFU, TNKS2 / Fold change vs veh, TNKS2 / RFU, ZFP14 / Fold change vs veh, ZFP14 / RFU, ACTR2 / Fold change vs veh, ACTR2 / RFU, PPP3R1 / Fold change vs veh, PPP3R1 / RFU, PIK3R1 / Fold change vs veh, PIK3R1 / RFU, HNRNPA1 / Fold change vs veh, HNRNPA1 / RFU, RNF170 / Fold change vs veh, RNF170 / RFU, ZNF28 / Fold change vs veh, ZNF28 / RFU, RNGTT / Fold change vs veh, RNGTT / RFU, OGT / Fold change vs veh, OGT / RFU, BRD1 / Fold change vs veh, BRD1 / RFU, MARS / Fold change vs veh, MARS / RFU, ZNF655 / Fold change vs veh, ZNF655 / RFU, FAHD1 / Fold change vs veh, FAHD1 / RFU, BDP1 / Fold change vs veh, BDP1 / RFU, LRRCC1 / Fold change vs veh, LRRCC1 / RFU, ARID1A / Fold change vs veh, ARID1A / RFU, ZNF146 / Fold change vs veh, ZNF146 / RFU, ZNF330 / Fold change vs veh, ZNF330 / RFU, GPN3 / Fold change vs veh, GPN3 / RFU, C9orf123 / Fold change vs veh, C9orf123 / RFU, N4BP2L2 / Fold change vs veh, N4BP2L2 / RFU, ARFIP1 / Fold change vs veh, ARFIP1 / RFU, FAM179B / Fold change vs veh, FAM179B / RFU, BCL10 / Fold change vs veh, BCL10 / RFU, UHRF1BP1L / Fold change vs veh, UHRF1BP1L / RFU, BET1 / Fold change vs veh, BET1 / RFU, CNOT2 / Fold change vs veh, CNOT2 / RFU, ZNF268 / Fold change vs veh, ZNF268 / Fold change vs veh, ZNF507 / RFU, DGCR2 / Fold change vs veh, DGCR2 / RFU, WDSUB1 / Fold change vs veh, WDSUB1 / Fold change vs veh, HSP90B1 /// MIR3652 / RFU, ADSS / Fold change vs veh, ADSS / RFU, GK / Fold change vs veh, GK / RFU, ZNF148 / Fold change vs veh, ZNF148 / RFU, TAF9 / Fold change vs veh, TAF9 / RFU, SLC1A5 / Fold change vs veh, SLC1A5 / RFU, SLMO2 / Fold change vs veh, SLMO2 / RFU, ABCC4 / Fold change vs veh, ABCC4 / RFU, LOC101060439 /// RAP1B / Fold change vs veh, LOC101060439 /// RAP1B / RFU, RFX7 / Fold change vs veh, RFX7 / RFU, GTPBP10 / Fold change vs veh, GTPBP10 / RFU, CNEP1R1 / Fold change vs veh, CNEP1R1 / RFU, BIVM-ERCC5 /// ERCC5 / Fold change vs veh, BIVM-ERCC5 /// ERCC5 / RFU, ILF3 / Fold change vs veh, ILF3 / RFU 11762660_at / Fold change /veh 11762660_at / RFU VCAN (11757783_s_at) / Fold change /veh VCAN (11757783_s_at) / RFU DDX43 (11728927_at) / Fold change /veh DDX43 (11728927_at) / RFU KRT8 (11758188_x_at) / Fold change /veh KRT8 (11758188_x_at) / RFU NKD1 (11759106_at) / Fold change /veh NKD1 (11759106_at) / RFU SRD5A1 (11742802_a_at) / Fold change /veh SRD5A1 (11742802_a_at) / RFU TPSAB1 /// TPSB2 (11721975_s_at) / Fold change /veh TPSAB1 /// TPSB2 (11721975_s_at) / RFU GSTM3 (11746129_a_at) / Fold change /veh GSTM3 (11746129_a_at) / RFU IL23R (11737362_x_at) / Fold change /veh IL23R (11737362_x_at) / RFU TMEM51 (11727254_a_at) / Fold change /veh TMEM51 (11727254_a_at) / RFU PIWIL2 (11732686_x_at) / Fold change /veh PIWIL2 (11732686_x_at) / RFU ORM1 (11744905_x_at) / Fold change /veh ORM1 (11744905_x_at) / RFU CCDC152 (11743942_at) / Fold change /veh CCDC152 (11743942_at) / RFU ECM1 (11717891_a_at) / Fold change /veh ECM1 (11717891_a_at) / RFU IL23R (11748794_a_at) / Fold change /veh IL23R (11748794_a_at) / RFU TNFAIP8L3 (11732012_x_at) / Fold change /veh TNFAIP8L3 (11732012_x_at) / RFU MBOAT4 (11741988_at) / Fold change /veh MBOAT4 (11741988_at) / RFU 11764193_at / Fold change /veh 11764193_at / RFU TMEM53 (11763286_at) / Fold change /veh TMEM53 (11763286_at) / RFU MAGEB2 (11727129_at) / Fold change /veh MAGEB2 (11727129_at) / RFU TMEM200A (11744735_a_at) / Fold change /veh TMEM200A (11744735_a_at) / RFU CCDC152 (11751479_a_at) / Fold change /veh CCDC152 (11751479_a_at) / RFU FAM211A (11726209_a_at) / Fold change /veh FAM211A (11726209_a_at) / RFU RGS16 (11746705_a_at) / Fold change /veh RGS16 (11746705_a_at) / RFU VCAN (11755009_s_at) / Fold change /veh VCAN (11755009_s_at) / RFU RHOB (11743442_s_at) / Fold change /veh RHOB (11743442_s_at) / RFU RGS16 (11720943_a_at) / Fold change /veh RGS16 (11720943_a_at) / RFU RGS16 (11720944_at) / Fold change /veh RGS16 (11720944_at) / RFU, VPS4B / Fold change vs veh, VPS4B / RFU, CREB1 / Fold change vs veh, CREB1 / RFU, DNAJC13 / Fold change vs veh, DNAJC13 / RFU, GNAQ / Fold change vs veh, GNAQ / RFU, CDK5R1 / Fold change vs veh, CDK5R1 / RFU, ZRANB3 / Fold change vs veh, ZRANB3 / RFU, CUL4A / Fold change vs veh, CUL4A / RFU, CCNY / Fold change vs veh, CCNY / RFU, UFL1 / Fold change vs veh, UFL1 / RFU, COG3 / Fold change vs veh, COG3 / RFU, DIAPH2 / Fold change vs veh, DIAPH2 / RFU, SKA2 / Fold change vs veh, SKA2 / RFU, AFF3 / Fold change vs veh, AFF3 / RFU, LMF1 / Fold change vs veh, LMF1 / RFU, IPO11 / Fold change vs veh, IPO11 / RFU, DFFB / Fold change vs veh, DFFB / RFU, FOXP1 / Fold change vs veh, FOXP1 / RFU, CARD8 / Fold change vs veh, CARD8 / RFU, STRN3 / Fold change vs veh, STRN3 / RFU, ADK / Fold change vs veh, ADK / RFU, RASSF2 / Fold change vs veh, RASSF2 / RFU, WIPF1 / Fold change vs veh, WIPF1 / RFU, LARP1B / Fold change vs veh, LARP1B / RFU, RASA1 / Fold change vs veh, RASA1 / RFU, RB1 / Fold change vs veh, RB1 / RFU, PPFIA1 / Fold change vs veh, PPFIA1 / RFU, MAT2A / Fold change vs veh, MAT2A / RFU, CCT5 / Fold change vs veh, CCT5 / RFU, WDR92 / Fold change vs veh, WDR92 / RFU, CUX1 / Fold change vs veh, CUX1 / RFU, TTC7A / Fold change vs veh, TTC7A / RFU, TMEM135 / Fold change vs veh, TMEM135 / RFU, DEPTOR / Fold change vs veh, DEPTOR / RFU, CPM / Fold change vs veh, CPM / RFU, DNAJB6 / Fold change vs veh, DNAJB6 / RFU, CACNA2D3 / Fold change vs veh, CACNA2D3 / RFU, DTX4 / Fold change vs veh, DTX4 / RFU, TFCP2 / Fold change vs veh, TFCP2 / RFU, GMCL1 /// GMCL1P1 / Fold change vs veh, GMCL1 /// GMCL1P1 / RFU, AEBP2 / Fold change vs veh, AEBP2 / RFU, SNHG1 /// SNORD22 /// SNORD25 /// SNORD26 /// SNORD27 /// SNORD28 /// SNORD29 /// SNORD31 / Fold change vs veh, SNHG1 /// SNORD22 /// SNORD25 /// SNORD26 /// SNORD27 /// SNORD28 /// SNORD29 /// SNORD31 / Fold change (Aza/veh), C12orf56 (ProbeSet 11735607_a_at) / Fold change (ACY-1035/veh), C12orf56 (ProbeSet 11735607_a_at) / Fold change (Aza/veh), FGFR1OP (ProbeSet 11751329_s_at) / Fold change (ACY-1035/veh), FGFR1OP (ProbeSet 11751329_s_at) / Fold change (Aza/veh), VPS36 (ProbeSet 11739960_a_at) / Fold change (ACY-1035/veh), VPS36 (ProbeSet 11739960_a_at) / RFU SYPL1 (11715823_x_at) / Fold change /veh SYPL1 (11715823_x_at) / RFU IGFBP7 (11715501_s_at) / Fold change /veh IGFBP7 (11715501_s_at) / RFU REEP3 (11722064_at) / Fold change /veh REEP3 (11722064_at) / RFU IGLL1 (11728026_x_at) / Fold change /veh IGLL1 (11728026_x_at): dose or concentration left out as unconfirmed
Conditions: ProbeSet 11720566_at; LIST D

Structure (SMILES): Nc1ncn([C@@H]2O[C@H](CO)[C@@H](O)[C@H]2O)c(=O)n1 [azacitidine]
- Fold change vs veh, BCAT1: 0.67
